The target of assay [1] is T1, recombinant human EphB3 kinase (Homo sapiens, UniProt P54753).
T1 sequence (P54753 633-896 limits assumed): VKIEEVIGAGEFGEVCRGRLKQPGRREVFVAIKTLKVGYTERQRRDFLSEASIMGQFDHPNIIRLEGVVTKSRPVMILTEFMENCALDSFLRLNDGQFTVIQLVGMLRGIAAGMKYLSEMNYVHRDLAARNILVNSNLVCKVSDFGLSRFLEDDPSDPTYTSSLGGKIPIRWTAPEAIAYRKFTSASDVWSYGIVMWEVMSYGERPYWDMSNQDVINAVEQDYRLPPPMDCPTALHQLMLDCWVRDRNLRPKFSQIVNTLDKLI
The assay is described as follows: IC50 for inhibiting EphB3 phosphorylation of the BTK peptide (33P radiometric assay, assay of Examples 1-6). The format is biochemical. The note with it: for EphB3 tyrosine kinase inhibitor activity (in words): inhibition of EphB3 phosphorylation of the BTK peptide; for IC50: inhibiting EphB3 phosphorylation of the BTK peptide (SEQ ID NO: 4).

Assay [2] deals with panel of tumor cell lines. The assay is described as follows: Dose-response against a panel of tumor cell lines (SRB, % growth). Format: cell-based, human. As to conditions: leukemia, non-small cell lung, colon, CNS, melanoma, ovarian, renal, prostate, breast cancer lines; FIG. 8(A)-(I). The procedure: The y-axis depicts the % growth and the x-axis depicts the compound concentration. The legends below each graph refer to the different tumor cell lines used. […]
The human tumor cell lines of the cancer screening panel were grown in RPMI 1640 medium containing 5% fetal bovine serum and 2 mM L-glutamine. For a typical screening experiment, cells were inoculated into 96 well microtiter plates in 100 μL at plating densities ranging from 5,000 to 40,000 cells/well depending on the doubling time of individual cell lines. After cell inoculation, the microtiter plates were incubated at 37° C., 5% CO2, 95% air and 100% relative humidity for 24 hours prior to addition of experimental drugs. […]
Following drug addition, the plates were incubated for an additional 48 h at 37° C., 5% CO2, 95% air, and 100% relative humidity. […] Bound stain was subsequently solubilized with 10 mM trizma base, and the absorbance is read on an automated plate reader at a wavelength of 515 nm. […] Using the seven absorbance measurements [time zero, (Tz), control growth, (C), and test growth in the presence of drug at the five concentration levels (Ti)], the percentage growth was calculated at each of the drug concentrations levels. Percentage growth inhibition was calculated as: [(Ti−Tz)/(C−Tz)]×100 for concentrations for which Ti>/=Tz [(Ti−Tz)/Tz]×100 for concentrations for which Ti<Tz. […]

The test system of assay [3] is Animal Model for Stroke (ischemia). The assay is described as follows: Neurological score / neurological deficit after ischemic injury. As to conditions: rated between 0 (unaffected) and 4 (worst); different doses; FIG. 7(B).
For assay [4] the test system is unchanged. Nature of the assay: Infarct volume in animal model for stroke (2 h artery occlusion, compound ICV, TTC staining). Format: in vivo, Sprague-Dawley rats. As to conditions: different doses administered ICV; FIG. 6(E), FIG. 7(A).
For assay [5], the target named is T2, recombinant human EphB3 kinase (Homo sapiens, UniProt P54753).
T2 sequence (P54753 585-998): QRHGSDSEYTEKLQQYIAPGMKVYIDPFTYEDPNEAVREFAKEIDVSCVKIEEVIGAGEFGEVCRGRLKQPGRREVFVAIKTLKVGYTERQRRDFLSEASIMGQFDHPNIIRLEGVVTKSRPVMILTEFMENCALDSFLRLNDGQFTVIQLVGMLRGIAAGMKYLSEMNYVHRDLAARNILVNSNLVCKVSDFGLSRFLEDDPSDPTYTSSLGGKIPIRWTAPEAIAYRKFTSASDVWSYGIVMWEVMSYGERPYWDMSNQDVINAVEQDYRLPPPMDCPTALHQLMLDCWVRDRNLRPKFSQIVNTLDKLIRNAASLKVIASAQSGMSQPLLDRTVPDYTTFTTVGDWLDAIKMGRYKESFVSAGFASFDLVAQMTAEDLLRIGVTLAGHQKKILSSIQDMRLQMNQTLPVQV
Nature of the assay: HTRF assay of BTK substrate phosphorylation by EphB3 kinase (known kinase inhibitors).

A further assay has as its target T3, recombinant EphB3 (Homo sapiens, UniProt P54753).
T3 sequence (P54753 34-998): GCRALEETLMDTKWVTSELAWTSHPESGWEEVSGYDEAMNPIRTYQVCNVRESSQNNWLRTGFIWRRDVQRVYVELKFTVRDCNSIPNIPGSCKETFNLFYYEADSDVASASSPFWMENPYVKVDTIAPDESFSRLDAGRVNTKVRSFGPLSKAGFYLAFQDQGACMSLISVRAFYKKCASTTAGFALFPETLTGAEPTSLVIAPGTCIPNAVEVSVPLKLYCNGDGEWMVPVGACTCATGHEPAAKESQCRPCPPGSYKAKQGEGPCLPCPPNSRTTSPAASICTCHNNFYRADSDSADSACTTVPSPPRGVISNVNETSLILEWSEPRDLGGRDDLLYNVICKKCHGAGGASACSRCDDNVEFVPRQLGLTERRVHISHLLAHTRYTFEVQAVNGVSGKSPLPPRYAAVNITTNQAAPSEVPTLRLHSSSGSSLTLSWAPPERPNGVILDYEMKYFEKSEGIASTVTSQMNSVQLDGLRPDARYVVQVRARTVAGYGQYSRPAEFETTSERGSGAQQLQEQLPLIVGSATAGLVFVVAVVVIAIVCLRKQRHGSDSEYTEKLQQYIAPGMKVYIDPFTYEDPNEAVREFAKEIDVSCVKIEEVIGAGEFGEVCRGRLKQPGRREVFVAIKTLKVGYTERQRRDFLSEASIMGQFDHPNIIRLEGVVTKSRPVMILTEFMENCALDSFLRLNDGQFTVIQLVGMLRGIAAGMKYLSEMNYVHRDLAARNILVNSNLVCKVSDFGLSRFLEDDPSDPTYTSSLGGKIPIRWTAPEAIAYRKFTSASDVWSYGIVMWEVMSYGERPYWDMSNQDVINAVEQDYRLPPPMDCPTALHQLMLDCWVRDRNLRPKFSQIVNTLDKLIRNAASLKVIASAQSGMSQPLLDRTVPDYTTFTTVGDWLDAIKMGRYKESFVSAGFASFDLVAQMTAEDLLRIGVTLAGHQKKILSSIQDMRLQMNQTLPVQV
The note with it: published data, scintillation proximity assay, different substrate; cited from earlier work.

Where [6] appears, read: Table 1 pyrazolo[1,5-a]pyridine compounds.

Entries after “also recorded” stand apart in the source; their conditions may differ.

For `O=C(Nc1ccccc1Cl)c1cnn2ccccc12` [Compound 1], the “EphB3 tyrosine kinase inhibitor activity (in words)” value in assay [1] is “showed EphB3 tyrosine kinase inhibitor activity”.

For the compound `CN(C(=O)c1cnn2ccccc12)c1ccccc1Cl` [Compound 187597], the half-maximal inhibitory concentration (IC50) in assay [1] (setting [6]) was above 20 µM. In addition, the “EphB3 tyrosine kinase inhibitor activity (in words)” value in assay [1] is “inactive”.

With `O=C(Nc1ccccc1)c1cnn2ccccc12` [Compound 187598], in assay [1] (setting [6]), the half-maximal inhibitory concentration (IC50) is above 20 µM. Moreover, the “EphB3 tyrosine kinase inhibitor activity (in words)” value in assay [1] is on record as “little or no inhibition”.

With `O=C(Nc1cccc(Cl)c1)c1cnn2ccccc12` [Compound 187600], in assay [1] (setting [6]), the IC50 is above 20 µM. The “EphB3 tyrosine kinase inhibitor activity (in words)” value in assay [1] is on record as “little or no inhibition”.

As to `O=C(Nc1ccc(Cl)cc1)c1cnn2ccccc12` [Compound 187601], the IC50 in assay [1] (setting [6]) was above 20 µM. Further, the “EphB3 tyrosine kinase inhibitor activity (in words)” value in assay [1] is reported as “little or no inhibition”.

`O=C(NCc1ccccc1Cl)c1cnn2ccccc12` [Compound 187604]: the IC50 in assay [1] (setting [6]) is above 20 µM. Also, the “EphB3 tyrosine kinase inhibitor activity (in words)” value in assay [1] is “little or no inhibition; also recorded: inactive”.

For `COc1ccccc1NC(=O)c1cnn2ccccc12` [Compound 187605], the concentration for half-maximal inhibition (IC50) in assay [1] (setting [6]) is above 20 µM. In addition, the “EphB3 tyrosine kinase inhibitor activity (in words)” value in assay [1] was “little or no inhibition”.

For `Cn1cc(C(=O)Nc2ccccc2Cl)c2ccccc21` [Compound 187609], in assay [1] (Table 2 candidate compounds), the IC50 is above 20 µM.

On to `O=C(Nc1ccccc1Cl)c1ccnc2ccccc12` [Compound 187611], for which the IC50 in assay [1] (Table 2 candidate compounds) was above 20 µM.

For `O=C(Nc1ccccc1Cl)c1noc2ccccc12` [Compound 193671], the IC50 in assay [1] (Table 2 candidate compounds) is above 20 µM.

For the compound `Cc1cccc2c(C(=O)Nc3ccccc3Cl)cnn12` [Compound 193694], the IC50 in assay [1] (setting [6]) is above 20 µM.

On to `O=C(Nc1ccccc1Cl)c1cnn2cccnc12` [Compound 193695], for which, in assay [1] (Table 2 candidate compounds), the IC50 is above 20 µM.

As to `O=C(Nc1ccccc1Cl)c1cnn2ncccc12` [Compound 193697], in assay [1] (Table 2 candidate compounds), the IC50 was above 20 µM.

As for `O=C(Nc1ccccc1Cl)c1cnn2ccc(N3CCCC3)cc12` [Compound 194727, N-(2-chlorophenyl)-5-(pyrrolidin-1-yl)pyrazolo[1,5-a]pyridine-3-carboxamide], the IC50 in assay [1] (setting [6]) was below 0.3 µM.

Turning to `O=C(Nc1ccccc1Cl)c1cnc2ccc(Br)cn12` [Compound 209925, 6-bromo-N-(2-chlorophenyl)imidazo[1,2-a]pyridine-3-carboxamide], the half-inhibitory concentration (IC50) in assay [1] (Table 3 imidazo[1,2-a]pyridine compounds) was below 0.2 µM.

In the case of `O=C(Nc1ccccc1Cl)c1cnc2ccc(C3CCNCC3)cn12` [Compound 211904, N-(2-chlorophenyl)-6-(piperidin-4-yl)imidazo[1,2-a]pyridine-3-carboxamide], in assay [2], the “% growth of tumor cell lines” value is recorded as “inhibited”. The Neurological deficit entry in assay [3] is on record as “dose-dependent neuroprotection in behavior”. For the same compound, the “Infarct volume at different compound doses” value in assay [4] was “dose-dependent decrease in infarct volume”.

Regarding `CC(C)(C)n1nc(-c2ccc(Cl)cc2)c2c(N)ncnc21` [PP2], the IC50 in assay [5] (12.5 nM EphB3, 30 min preincubation at RT, […] ATP, 600 nM BTK for 1 hr) is 1.7 µM; on recombinant EphB3, 0.8 µM. Moreover, in assay [5] (at 10 μM, HTS positive control), the inhibition is given as 80%.

With `CN[C@@H]1C[C@H]2O[C@@](C)([C@@H]1OC)n1c3ccccc3c3c4c(c5c6ccccc6n2c5c31)C(=O)NC4` [Staurosporine, staurosporine], in assay [5] (read-out: inhibition of phosphorylation), the inhibition at 100 µM was 50%.

The record behind these values is US8927545B2, “Inhibiting Eph B-3 kinase” (Duke University, priority 2009, dated 2015).
